According to patent US7276576B1, “Mammalian ICYP (iodocyanopindolol) receptor and its applications” (Dainippon Sumitomo Pharma Co., Ltd., priority 1996, dated 2007):
Where “and” joins values, the source holds several entries; their conditions need not be identical. Identical values can stand only once. Counter-ions that a name gives are not always drawn. Like-named read-outs stand apart in the source and are kept apart here.

Key:
[1] = test system: atypical β-AR in rat colon; conditions: under blockade of β1- and β2-AR effects; McLaughlin, MacDonald et al.; cited from earlier work
[2] = test system: rat white adipocytes; experiment: Lipolysis in rat white adipocytes; format: cell-based
Procedure: White adipocytes were isolated from epididymal fat pads of male Wistar rats (190-230 g) and lipolysis was determined according to the previous report (Sugasawa T. et al. cited above). The cells were preincubated for 5 min at 37° C. in the presence of 30 μM ascorbic acid, 10 μM phentolamine and 1 μM propranolol.
Agonists were then applied and incubated for 90 min. In the case of testing the effect of cyanopindolol, it was added 5 min before the addition of agonist.
(§1) Agonist concentration-ratios (CR) were determined from the EC50 values of the concentration-response curves of agonists with or without cyanopindolol, according to the method of Arunlakshana et al., 1959.
(§2) The EC50 values were calculated using the computer program, InPlot™.

[3] = biological target: T1, [125I]-ICYP specific binding site (SMBP, SM-11044 binding protein) in rat colon smooth muscle membranes (Rattus norvegicus, UniProt A0A8I6A822); experiment: [125I]-ICYP saturation and competition binding to rat colon membranes (Example 2)
T1 construct: Membranes from colon smooth muscles were prepared as essentially described by Ek et al., 1986; from tissue
T1 sequence (A0A8I6A822 27-587): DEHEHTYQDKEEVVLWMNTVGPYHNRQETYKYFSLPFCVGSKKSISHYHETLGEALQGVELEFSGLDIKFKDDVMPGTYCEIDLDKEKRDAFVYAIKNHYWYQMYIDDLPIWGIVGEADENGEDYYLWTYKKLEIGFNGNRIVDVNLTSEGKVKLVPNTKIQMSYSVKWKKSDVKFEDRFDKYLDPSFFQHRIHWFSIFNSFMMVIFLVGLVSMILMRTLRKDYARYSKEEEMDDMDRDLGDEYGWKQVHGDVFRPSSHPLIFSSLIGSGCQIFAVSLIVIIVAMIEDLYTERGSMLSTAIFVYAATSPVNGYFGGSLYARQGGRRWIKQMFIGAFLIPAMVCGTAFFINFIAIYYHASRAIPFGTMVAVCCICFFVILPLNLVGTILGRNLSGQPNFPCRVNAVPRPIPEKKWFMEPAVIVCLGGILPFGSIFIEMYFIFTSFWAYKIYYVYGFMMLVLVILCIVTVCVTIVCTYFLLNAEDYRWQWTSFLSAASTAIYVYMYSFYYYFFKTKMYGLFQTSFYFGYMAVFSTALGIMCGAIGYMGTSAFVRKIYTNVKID
Procedure: Incubations were carried out at 37° C. for 30 min in a shaking water-bath incubator and terminated by addition of 4 ml of ice-cold Tris-saline followed by rapid filtration under vacuum on Whatman GF/B filter presoaked in Tris-saline containing 0.1% polyethyleneimine (pH 7.4). The filters were washed three times with 4 ml of ice-cold Tris-saline, transferred to plastic tubes and counted in a γ-counter.
Hill coefficient was calculated by linear regression using saturation experiment data. Pseudo-Hill coefficient and IC50 were determined by the computer program, InPlot™ (GraphPad Software, CA, USA).

[4] = test system: rat colon smooth muscle segment; experiment: Relaxation of KCl-induced tonus in rat colon segment (organ bath)
Procedure: Rat colon segment (2 cm) was suspended in organ bath containing 10 ml modified-Tyrode solution (Sugasawa T. et al. Eur. J. Pharmacol., 1992, 216, 207-215). The Tyrode solution contained 0.5 μM atropine, 0.5 μM desmethylimipramine, 30 μM hydrocortisone, 30 μM ascorbic acid, 10 μM phentolamine and 1 μM propranolol throughout study, in order to inhibit spontaneous contraction, neuronal and extra-neuronal uptake of norepinephrine, oxidation of catecholamines, possible α, β1- and β2-AR effects, respectively.
The relaxant action of agonists was determined by measuring relaxation of KCl (100 mM)-induced tonus evoked by cumulative addition of the agonists as described previously (Sugasawa T. et al. cited above). In the case of testing the effect of cyanopindolol, it was added 5-10 min before the addition of agonist.
as §1, §2

[5] = test system: [125I]-ICYP specific binding site in rat skeletal muscle membranes; experiment: [125I]-ICYP binding to rat skeletal muscle membranes; conditions: 1 nM [125I]-ICYP; 10 μM 5-HT, 10 μM phentolamine and 20 μM propranolol
Procedure: Membranes from the colon smooth muscle and from skeletal muscle were prepared from male Wistar rats (300-360 g) as essentially mentioned in example 1.
Saturation binding studies were performed in a final volume of 200 μl of Tris-saline containing 50 μg membrane proteins and different concentrations ([…]) of [^125I]-ICYP, supplemented with 10 μM serotonine (5-HT), 10 μM phentolamine, 20 μM propranolol and 1.1 mM ascorbic acid (pH 7.4), to block possible 5-HT receptors, ARs and oxidation of catecholamines, respectively. The [^125I]-ICYP was used after removing methyl alcohol by compressed air to avoid the influence of the solvent. […] The filters were washed three times with 4 ml of ice-cold Tris-saline, transferred to plastic tubes and counted in a γ-counter.
Competition assays were performed against 1 nM [^125I]-ICYP. Non-specific binding was determined in the presence of 100 μM SM-11044. The inhibition constant, Ki, of a ligand was calculated using the equation described by Cheng and Prusoff (Biochem. Pharmacol., 1973, 22, 3099-3108). Hill coefficient was calculated by linear regression using saturation experiment data. Pseudo-Hill coefficient and IC50 were determined by the computer program, InPlot™ (GraphPad Software, CA, USA).

[6] = test system: guinea pig eosinophil; experiment: Leukotriene B4 induced guinea pig eosinophil chemotaxis; format: cell-based
[7] = test system: guinea pig ileum; experiment: Guinea pig ileum relaxation of KCl-induced tonus; conditions: compared with rat white adipocyte lipolysis
[8] = agonist (−)-isoproterenol, 10 μM phentolamine and 1 μM propranolol, listed as Cyanopindolol
[9] = agonist (−)-isoproterenol, 10 μM phentolamine and 1 μM propranolol, listed as cyanopindolol
[10] = agonist SM-11044, 10 μM phentolamine and 1 μM propranolol, listed as Cyanopindolol
[11] = agonist SM-11044, 10 μM phentolamine and 1 μM propranolol, listed as cyanopindolol
[12] = up to the concentration of 10 μM
[13] = 10 μM phentolamine and 1 μM propranolol, relative to isoproterenol, mean ± SEM

CC(C)(C)NCC(O)COc1cccc2[nH]c(C#N)cc12 (racemic) [(±)-cyanopindolol, cyanopindolol]
pA2 against propranolol-resistant responses of isoproterenol in rat colon [1]: 7.12 | Slope of Schild plot for cyanopindolol, rat white adipocytes [2, 8]: 1.08 | pA2 for cyanopindolol, rat white adipocytes [2, 8]: 7.44 | Slope of Schild plot for cyanopindolol, rat white adipocytes [2, 9]: 1.08 ± 0.10 | pA2 for cyanopindolol, rat white adipocytes [2, 9]: 7.44 ± 0.61 | Slope of Schild plot for cyanopindolol, rat white adipocytes [2, 10]: 0.96 | pA2 for cyanopindolol, rat white adipocytes [2, 10]: 7.32 | Slope of Schild plot for cyanopindolol, rat white adipocytes [2, 11]: 0.96 ± 0.21 | pA2 for cyanopindolol, rat white adipocytes [2, 11]: 7.32 ± 1.51 | Stimulation of lipolysis by the compound itself [2, 12]: did not stimulate lipolysis | Ki [3]: 110 nM | Pseudo-Hill coefficient ([3]; 1 nM [125I]-ICYP, 10 μM 5-HT, 10 μM phentolamine and 20 μM propranolol): 1.01 ± 0.14 | Slope of Schild plot for cyanopindolol, rat colon [4, 8]: 1.03 | pA2 for cyanopindolol, rat colon [4, 8]: 7.65 | Slope of Schild plot for cyanopindolol, rat colon [4, 9]: 1.03 ± 0.08 | pA2 for cyanopindolol, rat colon [4, 9]: 7.65 ± 0.48 | Slope of Schild plot for cyanopindolol, rat colon [4, 10]: 0.78 | pA2 for cyanopindolol, rat colon [4, 10]: 8.31 | Slope of Schild plot for cyanopindolol, rat colon [4, 11]: 0.78 and 0.78 ± 0.11 | pA2 for cyanopindolol, rat colon [4, 11]: 8.31 and 8.31 ± 0.88 | Effect of the compound itself on the degree of tonus induced by KCl [4, 12]: had no effect

O=C([C@@H](NCCCc1ccc(F)cc1)[C@H](O)c1ccc(O)c(O)c1)N1CCCC1 [SM-11044, (L)-threo-3-(3,4-dihydroxyphenyl)-N-[3-(4-fluorophenyl)propyl]serine pyrrolidine amide hydrobromide]
IA, rat white adipocyte lipolysis [2, 13]: 0.86 ± 0.054 | EC50 ([2]; Rattus norvegicus, Adipocyte, 10 μM phentolamine and 1 μM propranolol, mean ± SEM, read-out: pD2, rat white adipocyte lipolysis (converted)): 1100 nM | Displacement of [125I]-ICYP specific binding to skeletal muscle membranes [5]: displaced the binding in a concentration-dependent manner | Pseudo-Hill coefficient ([3]; 1 nM [125I]-ICYP, 10 μM 5-HT, 10 μM phentolamine and 20 μM propranolol, hydrobromide): 1.00 ± 0.12 | Ki ([3]; 1 nM [125I]-ICYP, 10 μM 5-HT, 10 μM phentolamine and 20 μM propranolol, read-out: Ki on [125I]-ICYP specific binding to rat colon membranes): 1800 ± 300 nM | IA, rat colon relaxation [4, 13]: 1.48 ± 0.166 | EC50 ([4]; Rattus norvegicus, relaxation of KCl (100 mM)-induced tonus, 10 μM phentolamine and 1 μM propranolol, mean ± SEM, read-out: pD2, rat colon relaxation (converted)): 51.3 nM | Inhibition of leukotriene B4 induced guinea pig eosinophil chemotaxis [6]: inhibiting | Relaxation of KCl-induced tonus in guinea pig ileum (in words) [7]: more efficiently than rat white adipocyte lipolysis
